# Legend:
# Streptococcus pyogenes = experiment: In vivo activity, experimentally infected mice (ED50); settings: Streptococcus pyogenes infection; doses administered subcutaneously to mice 1 and 4 hours postinfection
# [1] = test system: Streptococcus pneumoniae Park 1; assay type: cell-based
# Protocol: (§1) The formula I compounds have in vitro and in vivo activity against Gram-positive pathogenic bacteria. The MIC's were determined using a standard agar-dilution assays.
# [2] = test system: Staphylococcus aureus S13E; assay type: cell-based
# Protocol: as §1
# [3] = test system: Enterococcus faecalis 2041; experiment: MIC, standard agar-dilution assay; assay type: cell-based
# Protocol: as §1
# ^c Formerly Streptococcus faecalis 2041
# Staphylococcus aureus = experiment: In vivo activity, experimentally infected mice (ED50); settings: Staphylococcus aureus infection; doses administered subcutaneously to mice 1 and 4 hours postinfection
# Enterococcus faecium X66 = experiment: MIC, standard agar-dilution assay; assay type: cell-based
# Protocol: as §1
# ^b Formerly Streptococcus faecium X66
# Streptococcus pneumoniae = experiment: In vivo activity, experimentally infected mice (ED50); settings: Streptococcus pneumoniae infection; doses administered subcutaneously to mice 1 and 4 hours postinfection
# [4] = test system: Haemophilus influenzae C.L.; experiment: MIC, standard agar-dilution assay; assay type: cell-based
# Protocol: as §1
# [5] = test system: Klebsiella pneumoniae KAE; experiment: MIC, standard agar-dilution assay; assay type: cell-based
# Protocol: as §1
# [6] = test system: Haemophilus influenzae 76; experiment: MIC, standard agar-dilution assay; assay type: cell-based
# Protocol: as §1
# [7] = test system: Klebsiella pneumoniae X26; experiment: MIC, standard agar-dilution assay; assay type: cell-based
# Protocol: as §1
# Escherichia coli EC14 = experiment: MIC, standard agar-dilution assay; assay type: cell-based
# Protocol: as §1
# [8] = test system: Klebsiella pneumoniae X68; experiment: MIC, standard agar-dilution assay; assay type: cell-based
# Protocol: as §1
# Escherichia coli TEM = experiment: MIC, standard agar-dilution assay; assay type: cell-based
# Protocol: as §1
# [9] = test system: Staphylococcus aureus NRRL X1.1; experiment: MIC, standard agar-dilution assay; assay type: cell-based
# Protocol: as §1
# [10] = test system: Staphylococcus aureus V41; experiment: MIC, standard agar-dilution assay; assay type: cell-based
# Protocol: as §1
# [11] = test system: Streptococcus pyogenes C203; experiment: MIC, standard agar-dilution assay; assay type: cell-based
# Protocol: as §1
# [12] = test system: Staphylococcus epidermidis 222; experiment: MIC, standard agar-dilution assay; assay type: cell-based
# Protocol: as §1
# [13] = test system: Staphylococcus epidermidis EPI270; experiment: MIC, standard agar-dilution assay; assay type: cell-based
# Protocol: as §1
# Escherichia coli N10 = experiment: MIC, standard agar-dilution assay; assay type: cell-based
# Protocol: as §1
# [14] = test system: Staphylococcus aureus X400; experiment: MIC, standard agar-dilution assay; assay type: cell-based
# Protocol: as §1
Compound,ED50 (Streptococcus pyogenes),MIC [1],MIC [2],MIC [3],ED50 (Staphylococcus aureus),MIC (Enterococcus faecium X66),ED50 (Streptococcus pneumoniae),MIC [4],MIC [5],MIC [6],MIC [7],MIC (Escherichia coli EC14),MIC [8],MIC (Escherichia coli TEM),MIC [9],MIC [10],MIC [11],MIC [12],MIC [13],MIC (Escherichia coli N10),further results
CCN(CC)c1ccc(CN[C@@]2(C)C[C@H](O[C@H]3[C@H](Oc4c5cc6cc4Oc4ccc(cc4Cl)[C@@H](O)[C@@H](NC(=O)[C@@H](CC(C)C)NC)C(=O)N[C@@H](CC(N)=O)C(=O)N[C@H]6C(=O)N[C@H]4C(=O)N[C@H](C(=O)N[C@H](C(=O)O)c6cc(O)cc(O)c6-c6cc4ccc6O)[C@H](O[C@H]4C[C@](C)(N)[C@@H](O)[C@H](C)O4)c4ccc(cc4)O5)O[C@H](CO)[C@@H](O)[C@@H]3O)O[C@@H](C)[C@@H]2O)cc1 [Compound 17],0.23 mg/kg/2,.25 µg/mL,.5 µg/mL,1 µg/mL,0.78 mg/kg/2,1 µg/mL,0.33 mg/kg/2,> 128 µg/mL,> 128 µg/mL,> 128 µg/mL,> 128 µg/mL,> 128 µg/mL,> 128 µg/mL,> 128 µg/mL,.5 µg/mL,.5 µg/mL,.25 µg/mL,.5 µg/mL,1 µg/mL,> 128 µg/mL,MIC [14]: .5 µg/mL
CCCCCN[C@@]1(C)C[C@H](O[C@H]2[C@H](Oc3c4cc5cc3Oc3ccc(cc3Cl)[C@@H](O[C@H]3C[C@](C)(N)[C@@H](O)[C@H](C)O3)[C@@H]3NC(=O)[C@H](NC(=O)[C@@H]5NC(=O)[C@H](CC(N)=O)NC(=O)[C@H](NC(=O)[C@@H](CC(C)C)NC)[C@H](O)c5ccc(c(Cl)c5)O4)c4ccc(O)c(c4)-c4c(O)cc(O)cc4[C@@H](C(=O)O)NC3=O)O[C@H](CO)[C@@H](O)[C@@H]2O)O[C@@H](C)[C@@H]1O [Compound 34],0.44 mg/kg/2,.5 µg/mL,.5 µg/mL,1 µg/mL,0.77 mg/kg/2,.5 µg/mL,0.44 mg/kg/2,> 128 µg/mL,> 128 µg/mL,> 128 µg/mL,> 128 µg/mL,> 128 µg/mL,> 128 µg/mL,> 128 µg/mL,.5 µg/mL,.5 µg/mL,.5 µg/mL,.5 µg/mL,2 µg/mL,> 128 µg/mL,MIC [14]: 1 µg/mL
CNC(CC(C)C)C(=O)NC1C(=O)NC(CC(N)=O)C(=O)NC2C(=O)NC3C(=O)NC(C(=O)NC(C(=O)O)c4cc(O)cc(O)c4-c4cc3ccc4O)C(OC3CC(C)(NCc4ccccc4)C(O)C(C)O3)c3ccc(c(Cl)c3)Oc3cc2cc(c3OC2OC(CO)C(O)C(O)C2O)Oc2ccc(cc2Cl)C1O (stereo not drawn) [Compound 76],0.62 mg/kg/2,1 µg/mL,.25 µg/mL,1 µg/mL,0.87 mg/kg/2,1 µg/mL,0.42 mg/kg/2,> 128 µg/mL,> 128 µg/mL,> 128 µg/mL,> 128 µg/mL,> 128 µg/mL,> 128 µg/mL,> 128 µg/mL,.25 µg/mL,.25 µg/mL,.5 µg/mL,.5 µg/mL,2 µg/mL,> 128 µg/mL,MIC [14]: .25 µg/mL
CNC(CC(C)C)C(=O)NC1C(=O)NC(CC(N)=O)C(=O)NC2C(=O)NC3C(=O)NC(C(=O)NC(C(=O)O)c4cc(O)cc(O)c4-c4cc3ccc4O)C(OC3CC(C)(N)C(O)C(C)O3)c3ccc(c(Cl)c3)Oc3cc2cc(c3OC2OC(CO)C(O)C(O)C2OC2CC(C)(NCc3ccccc3)C(O)C(C)O2)Oc2ccc(cc2Cl)C1O (stereo not drawn) [Compound 51],0.16 mg/kg/2,.125 µg/mL,.25 µg/mL,.5 µg/mL,0.34 mg/kg/2,.25 µg/mL,0.35 mg/kg/2,> 128 µg/mL,> 128 µg/mL,> 128 µg/mL,> 128 µg/mL,> 128 µg/mL,> 128 µg/mL,> 128 µg/mL,.25 µg/mL,.5 µg/mL,.25 µg/mL,.5 µg/mL,1 µg/mL,> 128 µg/mL,MIC [14]: .5 µg/mL
CCCCCN(C)[C@H](CC(C)C)C(=O)N[C@H]1C(=O)N[C@@H](CC(N)=O)C(=O)N[C@H]2C(=O)N[C@H]3C(=O)N[C@H](C(=O)N[C@H](C(=O)O)c4cc(O)cc(O)c4-c4cc3ccc4O)[C@H](O[C@H]3C[C@](C)(N)[C@@H](O)[C@H](C)O3)c3ccc(cc3)Oc3cc2cc(c3O[C@@H]2O[C@H](CO)[C@@H](O)[C@H](O)[C@H]2O[C@H]2C[C@](C)(N)[C@@H](O)[C@H](C)O2)Oc2ccc(cc2Cl)[C@H]1O [Compound 6],0.67 mg/kg/2,.125 µg/mL,.25 µg/mL,1 µg/mL,0.88 mg/kg/2,1 µg/mL,0.94 mg/kg/2,> 128 µg/mL,> 128 µg/mL,> 128 µg/mL,> 128 µg/mL,> 128 µg/mL,> 128 µg/mL,> 128 µg/mL,.25 µg/mL,.25 µg/mL,.125 µg/mL,.5 µg/mL,.5 µg/mL,> 128 µg/mL,MIC [14]: .25 µg/mL
CNC(CC(C)C)C(=O)NC1C(=O)NC(CC(N)=O)C(=O)NC2C(=O)NC3C(=O)NC(C(=O)NC(C(=O)O)c4cc(O)cc(O)c4-c4cc3ccc4O)C(OC3CC(C)(N)C(O)C(C)O3)c3ccc(c(Cl)c3)Oc3cc2cc(c3OC2OC(CO)C(O)C(O)C2OC2CC(C)(NCc3cccc(Cl)c3)C(O)C(C)O2)Oc2ccc(cc2Cl)C1O (stereo not drawn) [Compound 64],0.94 mg/kg/2,.25 µg/mL,.5 µg/mL,.25 µg/mL,0.55 mg/kg/2,.25 µg/mL,0.10 mg/kg/2,> 128 µg/mL,> 128 µg/mL,> 128 µg/mL,> 128 µg/mL,> 128 µg/mL,> 128 µg/mL,> 128 µg/mL,.25 µg/mL,.25 µg/mL,.06 µg/mL,.5 µg/mL,.25 µg/mL,> 128 µg/mL,MIC [14]: .5 µg/mL

# From patent publication US5591714A, “Derivatives of A82846” (priority 1994, dated 1997)
